Results: patent US20070111258A1, “Compositions and methods for modulating the acute phase response” (priority 2005, published 2007)

Assays:
CRP = assay: Serum CRP in CREBH knockdown and control RNAi mice (ELISA); assay type: in vivo, mouse; conditions: 24 hours after injection
Description: (§1) (A) Identification of CREBH knockdown mice by Northern blot analysis. Transgenic mice with empty vector lentivirus expressing GFP were used as controls. Total RNAs (15 μg/lane) were isolated from the livers of the CREBH RNAi or the control mice, and subjected to Northern blot analysis. A 260 bp GFP cDNA fragment and a 210 bp mouse CREBH cDNA fragment were used as probes for detecting levels of GFP mRNA and CREBH mRNA, respectively. Levels of ββ-actin mRNA were determined for control of sample loading. (B) Morphology of CREBH knockdown embryos. The embryos were collected at gestation stage E14.5. The paraffin-embedded embryo sections were stained with hematoxylin and eosin. Magnification: 20 X. (C) Northern blot analysis of levels of CREBH, CRP and SAP mRNA in the livers of the CREBH knockdown or the control mice. Levels of β-actin mRNA were determined for sample loading controls. (D-E) Serum levels of SAP and CRP in the CREBH knockdown and the siRNA control mice in response to IL6 plus IL1β LPS or Tm. CREBH knockdown and RNAi control mice at 3-months of age were challenged with recombinant mouse IL6 (25 ng/gram body weight) plus recombinant mouse IL1β (25 ng/gram body weight), LPS (3 μg/gram body weight) or Tm (2 mg/kg body weight). Serum levels of SAP and CRP in the mice were determined before injection and at 24 hours after IL6 plus IL1β, LPS or Tm injection. […]

CRP and SAP mRNA = CRP and SAP mRNA in mouse primary hepatocytes (Northern blot); assay type: cell-based; conditions: Tm 5 μg/ml 2, 4, 6, 8 hours
Description: Primary hepatocytes were isolated from fetal livers of C57BL/6J mice at embryonic stage E18, and were then treated with Tm (5 μg/ml) for 2, 4, 6, and 8 hours. Total RNA was isolated and subjected to Northern blot analysis to determine levels of CRP, SAP and BiP mRNAs (upper panel). Levels of spliced XBP1 mRNA were determined by quantitative real-time RT-PCR (lower panel). For panels A-B, experiments were performed at least 3 times and representative data are shown. […] Quantitative real-time RT-PCR was used to determine the mRNA levels.
Primary hepatocytes were isolated from fetal livers of C57BL/6J mice at embryonic stage E18 as previously described (Mackey and Darlington, 2004).

SAP = assay: Serum SAP in CREBH knockdown and control RNAi mice (ELISA); assay type: in vivo, mouse; conditions: Tm 2 μg/gram body weight i.p., 24 hours
Description: as §1

human CREBH = assay: Cleavage of flag-tagged human CREBH stably expressed in H2.35 cells (Western blot, cell fractionation); assay type: cell-based
Description: FIG. 3 depicts the effects of ER stress on CREBH: proteolytic cleavage of CREBH to release its N-terminal fragment that translocates into the nucleus. (A) Illustration of transmembrane domains and lumenal domains of SREBP, ATF6, Luman and CREBH in human (hs), mouse (mm). The conserved residues for S1P and S2P recognition are highlighted. (B) Cleavage of CREBH in H2.35 cells under different stimuli. H2.35 cells stably expressing flag-tagged human CREBH were treated with 0.5 μg/ml BFA, 20 ng/ml TNFα, 40 ng/ml IL6, 5 mM DTT, 0.5 μM Tg or 5 μg/ml Tm for 8 hours. Untransfected H2.35 cells (lane 1) and the H2.35 cells that stably express human CREBH (lane 2) were cultured under normal conditions as control. Total cell lysates were collected for Western blot analysis by using an anti-flag monoclonal antibody (upper panel). Levels of α-actin were determined for control of protein loading (lower panel). (C) Cleavage of CREBH in H2.35 cells under Tm treatment for various time periods. The H2.35 cells stably expressing flag-tagged CREBH were cultured in the absence or presence of Tm (5 μg/ml) for 4, 8 or 12 hours. Membrane fractions were isolated from the total cell lysates, and were subjected to Western blot analysis of CREBH and calnexin, respectively. Nuclear fractions were isolated from the same total cell lysates and subjected to Western blot analysis of CREBH and PARP, respectively. (D) Translocation of CREBH in COS7 cells. COS7 cells were co-transfected with a construct expressing flag-tagged full-length CREBH (CREBH-F) or CREBH-ΔC and a construct expressing KDEL-RFP, and were then cultured in the absence or presence of Tm (5 μg/ml) for 4 hours. Cells were then stained with FITC-conjugated anti-flag antibody and subjected to Zeiss Confocal Microscope analysis. Magnification: 40×10.
For analysis of expression and cleavage of CREBH protein, total cell lysates were prepared from H2.35 cells or COS7 cells using Nonidet P-40 lysis buffer (1% NP-40, 50 mM Tris-HCl at pH 7.5, 150 mM NaCl, 0.05% SDS) supplemented with protease inhibitors (Complete Mini from Roche Applied Science), 0.1 mM sodium vanadate, and 1 mM sodium fluoride. Membrane and nuclear fractions of cell lysates were isolated as previously described (Dignam et al., 1983). The total cell lysate, membrane and nuclear fractions were subjected to SDS-PAGE and then analyzed by Western blot using anti-flag monoclonal antibody or other antibodies. Immunoprecipitation and Western blot analyses of ATF6 and CREBH interaction in 293T cells expressing flag-tagged CREBH protein were performed by using anti-human ATF6 and anti-flag antibodies. Total cell lysates from 293T cells transfected with control vector or pFlag-CREBH-ΔC were immunoprecipitated with anti-human ATF6 polyclonal antibody and anti-flag antibody, respectively. The immunoprecipitated cell lysates were then subjected to Western blotting by using anti-flag antibody to detect CREBH protein and using anti-human ATF6 antibody to detect ATF6 protein, respectively. The same total cell lysates were subjected to Western blotting by using anti-flag antibody to detect expression of CREBH protein in the transfected cells. For detecting endogenous CREBH protein in the liver extracts, an anti-mouse CREBH polyclonal antibody was raised in rabbits against a purified mouse CREBH peptide composed of amino acids 92-109 [[…]]. The rabbit anti-human ATF6 polyclonal antibody was generated in the inventor's laboratory. The anti-mouse calnexin monoclonal antibody and the anti-mouse monoclonal PRAP antibody were purchased from Stressgen Biotechnologies (Victoria, BC, Canada) and BD Bioscience (Mountain View, Calif., USA), respectively.

tunicamycin [Tm] was tested, and the “increase of serum levels of CRP” value (CRP; control RNAi mice) was “approximately 2 fold”, the “increase of serum levels of CRP” value (CRP; treated CREBH knockdown mice) was “no such increase” and the “expression of the CRP and SAP mRNA” value (CRP and SAP mRNA) was “increased expression of the CRP and SAP mRNA in a time-dependent manner”. For the same substance, the “increase of serum SAP” value (SAP; CREBH knockdown mice) was “approximately 2 fold”, the “increase of serum levels of SAP” value (SAP; control mice) was “approximately 12 fold” and the “cleavage of CREBH to release a 50 kD N-terminal fragment” value (human CREBH; H2.35 cells stably expressing flag-tagged human CREBH, 8 hours, BFA 0.5 μg/ml, TNFα 20 ng/ml, IL6 40 ng/ml, DTT 5 mM, Tg 0.5 μM, Tm 5 μg/ml) was “significantly induced cleavage of CREBH”. The “amount of 50 kD N-terminal cleaved CREBH fragment in the nuclear fraction” value (human CREBH; Tm 5 μg/ml for 4, 8 or 12 hours) was “gradually increased with increasing times of Tm treatment”.
